In publication PMC10649961, “Novel Mitochondria-Targeted Amphiphilic Aminophosphonium Salts and Lipids Nanoparticles: Synthesis, Antitumor Activity and Toxicity” (Nanomaterials, 2023):
Read-outs that look alike come from different tables or passages of the source. Where a SMILES comes first, the peptide text is derived from it. [ ]: non-standard residue; d: D form. Orn = NCCC[C@H](N)C(=O)O

How the values were obtained:
M-HeLa [1] = experiment: cells; details: Homo sapiens, 48 h, read-out: Cytotoxic Effects (IC50)
T98G [2] = experiment: cells; details: Homo sapiens, 48 h, read-out: Cytotoxic Effects (IC50)
SK-OV-3 [3] = experiment: cells; details: Homo sapiens, SK-OV-3, 48 h, read-out: Cytotoxic Effects (IC50)
[4] = test system: Enterococcus faecalis ATCC 29212; experiment: Antimicrobial activity, serial microdilutions, Ef; assay type: cell-based; details: Enterococcus faecalis
Method in brief: (§1)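 Compounds were serially diluted in broth: Mueller-Hinton for the bacterial strains, Sabouraud for the yeast. Each determination was done in triplicate.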

[5] = test system: Escherichia coli ATCC 25922; experiment: Antimicrobial activity, serial microdilutions, Ec; assay type: cell-based; parameters: key to Minimum Inhibitory Concentration (MIC) / Minimum bactericidal and fungicidal concentrations (MBC, MFC): – means non-active
Method in brief: (§2)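 Activity was read from serial microdilutions, with bacteria grown in Mueller-Hinton broth and Candida in Sabouraud broth. The MRSA-1 strain came from a patient with chronic tonsillitis.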

MCF-7 [6] = experiment: cells; details: Homo sapiens, MCF7, 48 h, read-out: Cytotoxic Effects (IC50)
HuTu 80 [7] = experiment: cells; details: Homo sapiens, HuTu80, 48 h, read-out: Cytotoxic Effects (IC50)
PANC-1 [8] = experiment: cells; details: Homo sapiens, PANC-1, 48 h, read-out: Cytotoxic Effects (IC50)
PANC-1 [9] = test system: PANC-1
PC3 [10] = test system: PC3
Hep G2 [11] = test system: Hep G2
A549 [12] = test system: A549
MRSA-1 = experiment: Antimicrobial activity, serial microdilutions, MRSA-1; assay type: cell-based, S. aureus; parameters: key to Minimum Inhibitory Concentration (MIC) / Minimum bactericidal and fungicidal concentrations (MBC, MFC): – means non-active
Method in brief: as §2

PC3 [13] = experiment: cells; details: Homo sapiens, PC-3, 48 h, read-out: Cytotoxic Effects (IC50), PC3, MTT assay, 48 h
A549 [14] = experiment: cells; details: Homo sapiens, A549, 48 h, read-out: Cytotoxic Effects (IC50)
HuTu 80 [15] = test system: HuTu 80
Hep G2 [16] = experiment: cells; details: Homo sapiens, HepG2, 48 h, read-out: Cytotoxic Effects (IC50)
[17] = test system: Staphylococcus aureus ATCC 6538 P FDA 209P; experiment: Antimicrobial activity, serial microdilutions, Sa; assay type: cell-based; details: Staphylococcus aureus
Method in brief: as §1

DU-145 [18] = experiment: cells; details: Homo sapiens, DU-145, 48 h, read-out: Cytotoxic Effects (IC50), DU-145, MTT assay, 48 h
[19] = test system: Candida albicans ATCC 10231; experiment: Antimicrobial activity, serial microdilutions, Ca; assay type: cell-based; parameters: key to Minimum Inhibitory Concentration (MIC) / Minimum bactericidal and fungicidal concentrations (MBC, MFC): – means non-active; details: Ca
Method in brief: as §2

[20] = test system: Bacillus cereus ATCC 10702 NCTC 8035; experiment: Antimicrobial activity, serial microdilutions, Bc; assay type: cell-based; parameters: key to Minimum bactericidal and fungicidal concentrations (MBC, MFC): – means non-active; details: Bc
Method in brief: as §2

MRSA-2 = experiment: Antimicrobial activity, serial microdilutions, MRSA-2; assay type: cell-based, S. aureus; details: Staphylococcus aureus
Method in brief: as §1

[21] = In vivo acute toxicity, single intraperitoneal injection; parameters: species or system mice; details: male, CD-1, mouse, in vivo, ip, male CD-1 mice, single intraperitoneal administration, 14 days, Probit analysis
Description: (§3) The study of acute toxicity was performed on males of outbred white mice of the CD-1 line at the age of 2–3 months, weighing 20–30 g. The total number of mice participating in the experiment was 300. Mice were obtained from the Research and Production Enterprise Laboratory Animal Farm based at the Branch of Shemyakin and Ovchinnikov Institute of Bioorganic Chemistry of the Russian Academy of Sciences (Pushchino, Russia). The animals were kept in accordance with in standard conditions in a vivarium with 12 h of daylight and free access to food and water. The animals were fed complete feed made according to specifications (protein 22%, fiber 4% max., fat 5% max, ash 9% max, humidity 13.5% max, caloric value 295 kcal/100 g). The studies were conducted with a single parenteral–intraperitoneal (intra-peritoneal) injection, according to the method.
(§4) The substances were introduced in a sterile saline DMSO (40% vol.) solution. Solutions of the substances were prepared immediately before administration. The total volume of the injected liquid was 0.1 mL/10 g of animal weight. As a control, a group of mice was administered under similar conditions an equivalent amount (0.1 mL/10 g, or 10 mL/kg) of a solvent—40% DMSO on sterile saline solution. The substances were administered in doses ranging from 1 to 100 mg/kg; there were six animals in each group. To assess acute toxicity, the animals were monitored 14 days after administration of the substance, assessing their general condition and recording deaths.
(§5) The study of the acute toxicity parameters of six aminophosphonium salts 4a, 4b, 4d, 5a, 5b, and 6b was performed on male outbreed white mice of the CD-1 line. Acute toxicity was determined with a single parenteral (intraperitoneal) administration in sterile saline/DMSO (40% vol.) solution at doses from 1 to 100 mg/kg. To assess acute toxicity, the animals were monitored for 14 days after the introduction of substances, assessing their general condition and recording deaths. Next, lethal doses LD50, LD0, LD16, LD84, and LD100 were calculated using the Probit analysis method. LD0, LD16, LD84, and LD100 are given in Supplementary Material (Table S1).

mice of the CD-1 line = experiment: as above; details: for onset of animal death after administration: CD-1 mice, i.p., doses of LD100; for acute toxicity class: according to the classification [105], parenteral administration
Description: as §3, §4, §5

MCF-7 [22] = test system: MCF-7
T98G [23] = test system: T98G
SK-OV-3 [24] = test system: SK-OV-3
DU-145 [25] = test system: DU-145
M-HeLa [26] = test system: M-HeLa
[27] = test system: Pseudomonas aeruginosa ATCC 9027; experiment: Antimicrobial activity, serial microdilutions, Pa; assay type: cell-based; parameters: key to Minimum Inhibitory Concentration (MIC) / Minimum bactericidal and fungicidal concentrations (MBC, MFC): – means non-active
Method in brief: as §2

[28] = test system: human volunteer donor erythrocytes; experiment: Hemolytic assay; assay type: cell-based; details: hemolysis in 50% of human erythrocytes, 1 h, 37 °C
Description: The hemolytic activity of Aminophosphonium Salts was assessed by comparing the optical density of a solution containing the test compound with the optical density of blood at 100% hemolysis. Healthy human volunteer donor erythrocytes were used as the object of the study. Red blood cells with EDTA (1.8 mg/mL) were washed three times with saline (0.9% NaCl), centrifuged for 10 min at 800× g rpm, and resuspended in saline (0.9% NaCl) to a concentration of 10%. The tested concentrations (0.1–100 μM) were prepared in physiological solution (0.9% NaCl) (with the addition of 5% DMSO). Compounds at the appropriate dilution (450 μL) were added to 50 μL of a 10% red blood cell suspension. Samples were incubated for 1 h at 37 °C and centrifuged for 10 min at 2000 rpm. The release of hemoglobin was controlled by measuring the optical density of the supernatant on an InvitroLogic microplate reader at λ = 540 nm. A control sample corresponding to zero hemolysis (blank experiment) was prepared by adding 50 μL of a 10% red blood cell suspension to 450 μL of saline (0.9% NaCl). A control sample corresponding to 100% hemolysis was prepared by adding 50 μL of a 10% red blood cell suspension to 450 μL of distilled water. Blood was taken at the Clinic of the Federal Research Center “Kazan Scientific Center of the Russian Academy of Sciences” from healthy donors with their personal consent.

[29] = calculated relative to the cell line Chang liver (b)
[30] = reference normal cell line not marked at the place (ns cells)
[31] = read-out: Minimum Inhibitory Concentration (MIC)
[32] = read-out: Minimum bactericidal and fungicidal concentrations (MBC, MFC)
[33] = calculated relative to the cell line WI38 (a)

CCCCCC[P+](N(CC)CC)(N(CC)CC)N(CC)CC [4a, Tris(diethylamino)(hexyl)phosphonium iodide]
IC50 (M-HeLa [1]): 52.4 ± 3.7 µM
IC50 (T98G [2]): 57.4 ± 4 µM
IC50 (SK-OV-3 [3]): 46.6 ± 3.5 µM
MIC ([4]; ATCC29212, read-out: Minimum Inhibitory Concentration (MIC)): 250 ± 21 µM
MBC ([4]; ATCC29212, read-out: Minimum bactericidal and fungicidal concentrations (MBC, MFC)): 500 ± 46 µM
Minimum Inhibitory Concentration (MIC) [5]: –
Minimum bactericidal and fungicidal concentrations (MBC, MFC) [5]: –
IC50 (MCF-7 [6]): 26 ± 1.8 µM
IC50 (HuTu 80 [7]): 11.4 ± 0.9 µM
IC50 (PANC-1 [8]): 16.1 ± 1.3 µM
selectivity index (SI) (PANC-1 [9]; [29]): 1.1
selectivity index (SI) (PC3 [10]; [30]): ns (ns—no selectivity)
selectivity index (SI) (Hep G2 [11]; [30]): ns (ns—no selectivity)
selectivity index (SI) (A549 [12]; [30]): ns (ns—no selectivity)
Minimum bactericidal and fungicidal concentrations (MBC, MFC) (MRSA-1): –
MIC (MRSA-1; Staphylococcus aureus, read-out: Minimum Inhibitory Concentration (MIC)): 125 ± 10 µM
IC50 (PC3 [13]): 44 ± 3.1 µM
IC50 (A549 [14]): 64.1 ± 4.5 µM
selectivity index (SI) (HuTu 80 [15]; [29]): 1.6
IC50 (Hep G2 [16]): 46.6 ± 3.3 µM
MIC [17, 31]: 62.5 ± 5.2 µM
MBC [17, 32]: 250 ± 20 µM
IC50 (DU-145 [18]): 26.2 ± 1.9 µM
Minimum Inhibitory Concentration (MIC) [19]: –
Minimum bactericidal and fungicidal concentrations (MBC, MFC) [19]: –
MIC ([20]; Bacillus cereus, read-out: Minimum Inhibitory Concentration (MIC)): 62.5 ± 5.3 µM
Minimum bactericidal and fungicidal concentrations (MBC, MFC) [20]: –
MIC (MRSA-2; [31]): 125 ± 11 µM
MBC (MRSA-2; [32]): 125 ± 10 µM
LD50 at 14 days [21]: 31.7 mg/kg
onset of animal death after administration (mice of the CD-1 line): 1 to 2 h
acute toxicity class (mice of the CD-1 line): moderately toxic
selectivity index (SI) (MCF-7 [22]; [30]): ns (ns—no selectivity)
selectivity index (SI) (T98G [23]; [30]): ns (ns—no selectivity)
selectivity index (SI) (SK-OV-3 [24]; [30]): ns (ns—no selectivity)
selectivity index (SI) (DU-145 [25]; [30]): ns (ns—no selectivity)
selectivity index (SI) (M-HeLa [26]; [30]): ns (ns—no selectivity)
Minimum Inhibitory Concentration (MIC) [27]: –
Minimum bactericidal and fungicidal concentrations (MBC, MFC) [27]: –

CCCCCC[P+](c1ccccc1)(N(CC)CC)N(CC)CC [5a, Bis(diethylamino)(hexyl)(phenyl)phosphonium iodide]
IC50 (M-HeLa [1]): 23 ± 1.6 µM
IC50 (T98G [2]): 30.3 ± 2.1 µM
IC50 (SK-OV-3 [3]): 20 ± 1.6 µM
IC50 (MCF-7 [6]): 17.1 ± 1.3 µM
IC50 (HuTu 80 [7]): 0.3 ± 0.02 µM
IC50 (PANC-1 [8]): 17.8 ± 1.4 µM
selectivity index (SI) (PANC-1 [9]; [33]): 3.5
selectivity index (SI) (PC3 [10]; [33]): 13
times less toxic toward the normal WI38 cell line compared with doxorubicin (WI38): 157 times
selectivity index (SI) (Hep G2 [11]; [33]): 3.8
selectivity index (SI) (A549 [12]; [33]): 3.7
IC50 (PC3 [13]): 4.9 ± 0.4 µM
IC50 (A549 [14]): 17 ± 1.3 µM
selectivity index (SI) (HuTu 80 [15]; [33]): 210
IC50 (Hep G2 [16]): 16.5 ± 1.3 µM
IC50 (DU-145 [18]): 6.3 ± 0.5 µM
LD50 at 14 days [21]: 44.7 mg/kg
onset of animal death after administration (mice of the CD-1 line): 1 to 2 h
acute toxicity class (mice of the CD-1 line): moderately toxic
selectivity index (SI) (MCF-7 [22]; [33]): 3.7
selectivity index (SI) (T98G [23]; [33]): 3.7
selectivity index (SI) (SK-OV-3 [24]; [33]): 3.2
selectivity index (SI) (DU-145 [25]; [33]): 10
selectivity index (SI) (M-HeLa [26]; [33]): 2.7

CC(C)C[C@@H]1NC(=O)[C@H](CCCN)NC(=O)[C@H](C(C)C)NC(=O)[C@@H]2CCCN2C(=O)[C@@H](Cc2ccccc2)NC(=O)[C@H](CC(C)C)NC(=O)[C@H](CCCN)NC(=O)[C@H](C(C)C)NC(=O)[C@@H]2CCCN2C(=O)[C@@H](Cc2ccccc2)NC1=O [Gramicidin S, reference compound] (cyclo(L[dF]PV[Orn]L[dF]PV[Orn]))
HC50 [28]: 9.4 ± 0.8 µM
